Patent publication US20140066439A1, “OSTEOCLAST ACTIVITY” (Katholieke Universiteit Leuen, K.U.Leuven R&D, priority 2010, published 2014)
Entries after “also recorded” stand apart in the source; their conditions may differ.

What was measured:
Assay type in all cases: cell-based, human
[1] = system: Peripheral Blood Mononuclear Cells (PBMCs); test: Osteoclast resorption of a hydroxyapatite layer (Von Kossa, ImageJ) by PBMC-derived osteoclasts; conditions: 14 days; for osteoclast activity (resorption): healthy PBMCs stimulated with RANKL and M-CSF, dose response, 10^-6, 10^-7 and 10^-8 M
Method: PBMCs were isolated from the whole blood of patients or healthy volunteers by means of Ficoll-Paque Plus (GE Healthcare, Brussels, Belgium) density gradient centrifugation according to the manufacturer's instructions. Heparinized whole blood (20 ml) was drawn from each individual and diluted 1:1 with alpha minimal essential medium (α-MEM; Lonza, Braine-l'Alleud, Belgium), before being layered over Ficoll-Paque and centrifuged at 450 g for 40 min. The mononuclear cell interface was then removed and washed 3 times with α-MEM. Cells were stored in liquid nitrogen until use and seeded at a density of 5×10^5 cells per well. All cultures were performed in quadruplicate in 16-well culture slides (VWR, Leuven, Belgium) or 16-well BD Biocoat Osteologic Slides (BD Biosciences), and cells were cultured in α-MEM supplemented with 10% FBS, 100 IU/ml penicillin and 100 μg/ml streptomycin (“complete medium”), or complete medium plus M-CSF (25 ng/ml) and RANKL (30 ng/ml). […]
(§1) After 14 days, PBMCs were fixed and stained for the osteoclast-specific marker tartrate-resistant acid phosphate (TRAP), and the nuclear marker DAPI, as previously described. The formation of TRAP positive multi-nucleated (more than three nuclei) cells was quantified by counting the multi-nuclear stained cells in each well (D'Amelio P, Grimaldi A, Pescarmona G P, Tamone C, Roato I, Isaia G. Spontaneous osteoclast formation from peripheral blood mononuclear cells in postmenopausal osteoporosis. FASEB J. 2005; 19(3):410-2.). Filamentous (F)-actin rings representing active osteoclasts were visualized after staining of the actin cytoskeleton with the toxin phalloidin conjugated to FITC, and quantified by counting, as described above. […] Lacunar resorption was determined by measuring the total area unstained by Von-Kossa (total area resorbed) using ImageJ software (National Institute of Health, MD, USA), and was expressed as the total percentage of the surface reabsorbed. […]

[2] = system: PBMCs from critically ill patients; test: Osteoclast formation (TRAP staining, day 14) in PBMCs from critically ill patients cultured in critically ill patient serum; conditions: low doses, compounds added d1-d14, TRAP staining at day 14
Text: We have determined that the treatment of patient's peripheral blood mononuclear cell (PBMCs), in particular, PBMCs of critically ill patients with autophagy inducers can be used to suppress enhanced osteoclastogenesis. It turned out that a particular advantage is that such autophagy inducers can be targeted to particularly treat the PBMCs.

p62 protein = test: Autophagy marker p62 protein expression (western blot) in PBMCs/osteoclasts; conditions: healthy PBMCs, RANKL/MCSF stimulated, spermidine 2×10^-8 M, 14 days
Text: We also measured markers of autophagy in the cell lysates from these experiments. The concentration of proteins we obtained were quite low, and there was insufficient protein to measure anything by western blotting in the “sick spermidine” group. […] There was no effect of spermidine on the healthy PBMCs (FIG. 6).
FIG. 6 concerns autophagy marker p62 protein expression in healthy and sick PBMCs/osteoclasts (RANKL/MCSF stimulated) and the effect of spermidine on healthy PBMCs/osteoclasts. Healthy and sick PBMCs were cultured for 14 days with or without spermidine (2×10^−8 M) in 6 well plates (5×10^6 cells/well). After 14 days, protein was extracted using the Ambion PARIS extraction kit (Applied Biosystems), and proteins quantified using the BC Protein Assay (Thermo Fischer Scientific). (A) 5 ug of protein was subjected to 15% Bis-tris gelelectrophoresis, transferred to nitrocellulose membrane and incubated at 4° C. overnight in Anti-p62 (Novus Biologicals; 1:1000). p62 protein was detected by ECL following incubation with AntiMouseIgG (DAKO; 1:1000). GAPDH was used as a loading control. (B) p62 relative expression was quantified with Image QuantTL (Amersham Biosciences) and normalized to GAPDH (n=3; ***p≦0.05 vs. Healthy).

[3] = system: Peripheral Blood Mononuclear Cells (PBMCs); test: Osteoclast formation: TRAP positive multinuclear cells in PBMC cultures; conditions: for TRAP positive multinuclear cells (osteoclast formation): spermidine 10^-8 M; for spontaneous osteoclast formation: 14 days
Method: PBMCs were isolated from the whole blood of patients or healthy volunteers by means of Ficoll-Paque Plus (GE Healthcare, Brussels, Belgium) density gradient centrifugation according to the manufacturer's instructions. Heparinized whole blood (20 ml) was drawn from each individual and diluted 1:1 with alpha minimal essential medium (α-MEM; Lonza, Braine-l'Alleud, Belgium), before being layered over Ficoll-Paque and centrifuged at 450 g for 40 min. The mononuclear cell interface was then removed and washed 3 times with α-MEM. Cells were stored in liquid nitrogen until use and seeded at a density of 5×10^5 cells per well. All cultures were performed in quadruplicate in 16-well culture slides (VWR, Leuven, Belgium) or 16-well BD Biocoat Osteologic Slides (BD Biosciences), and cells were cultured in α-MEM supplemented with 10% FBS, 100 IU/ml penicillin and 100 μg/ml streptomycin (“complete medium”), or complete medium plus M-CSF (25 ng/ml) and RANKL (30 ng/ml). In order to study the effect of circulating factors on osteoclast formation, PBMCs were also grown in α-MEM containing 10% human healthy volunteer serum (HS) or 10% patient serum (PS), in the presence or absence of M-CSF (25 ng/ml) and RANKL (30 ng/ml). For cytokine neutralization experiments, PBMCs were grown in α-MEM/10% PS for 14 days, in the presence of varying concentrations of anti-TNF-α and/or anti-IL-6 (R&D Systems, Abingdon, UK). All cultures were maintained at 37° C. in a humidified atmosphere with 5% CO2.
as §1

NCCCCNCCCN [Spermidine]
osteoclast activity (resorption) [1]: reduced
osteoclast activity (resorption) ([1]; listed as spermidine): inhibits
osteoclast resorption of hydroxyapatite layer ([1]; sick stimulated (RANKL/MCSF) PBMCs, increase vs healthy, spermidine 2×10^-8 M): reduced; also recorded: completely blocked
critical illness enhanced osteoclast formation [2]: inhibiting effect
p62 protein expression (p62 protein): no effect
TRAP positive multinuclear cells (osteoclast formation) ([3]; healthy PBMCs stimulated with RANKL and MCSF, day 14): did not, however, have a significant effect
spontaneous osteoclast formation ([3]; healthy unstimulated (no RANKL or MCSF) PBMCs): no effect
TRAP positive multinuclear cells (osteoclast formation) ([3]; sick (critically ill) PBMCs stimulated with RANKL and MCSF, day 14, vs control sick PBMCs): significant reduction; also recorded: completely blocked
spontaneous osteoclast formation ([3]; sick unstimulated (no RANKL or MCSF) PBMCs, increase vs healthy): completely knocked down

CO[C@H]1C[C@@H]2CC[C@@H](C)[C@@](O)(O2)C(=O)C(=O)N2CCCC[C@H]2C(=O)O[C@H]([C@H](C)C[C@@H]2CC[C@@H](OCCO)[C@H](OC)C2)CC(=O)[C@H](C)/C=C(\C)[C@@H](O)[C@@H](OC)C(=O)[C@H](C)C[C@H](C)/C=C/C=C/C=C/1C [Everolimus, 40-O-(2-hydroxyethyl)-rapamycin]
critical illness enhanced osteoclast formation [2]: inhibiting effect

CC(CN1c2ccccc2Sc2ccccc21)N(C)C (stereo not drawn) [Promethazine, 10-(2-dimethylaminopropyl)phenothiazine]
critical illness enhanced osteoclast formation [2]: inhibiting effect

Nc1ncn([C@@H]2O[C@H](CO)[C@@H](O)[C@H]2O)c(=O)n1 [5-azacytidine]
critical illness enhanced osteoclast formation [2]: inhibiting effect
